{"source": "PubChem BioAssay (NCI)", "assay_in_all_cases": "NCI tumour cell line growth inhibition, 48 h", "key": {"786-0 renal": {"system": "786-0 renal"}, "A498 renal": {"system": "A498 renal"}, "A549 NSCLC": {"system": "A549 NSCLC"}, "ACHN renal": {"system": "ACHN renal"}, "BT-549 breast": {"system": "BT-549 breast"}, "CAKI-1 renal": {"system": "CAKI-1 renal"}, "CCRF-CEM leukemia": {"system": "CCRF-CEM leukemia"}, "COLO 205 colon": {"system": "COLO 205 colon"}, "DU-145 prostate": {"system": "DU-145 prostate"}, "EKVX NSCLC": {"system": "EKVX NSCLC"}, "HCC-2998 colon": {"system": "HCC-2998 colon"}, "HCT-116 colon": {"system": "HCT-116 colon"}, "HCT-15 colon": {"system": "HCT-15 colon"}, "HL-60(TB) leukemia": {"system": "HL-60(TB) leukemia"}, "HOP-62 NSCLC": {"system": "HOP-62 NSCLC"}, "HOP-92 NSCLC": {"system": "HOP-92 NSCLC"}, "HS 578T breast": {"system": "HS 578T breast"}, "HT29 colon": {"system": "HT29 colon"}, "IGROV1 ovarian": {"system": "IGROV1 ovarian"}, "K-562 leukemia": {"system": "K-562 leukemia"}, "KM12 colon": {"system": "KM12 colon"}, "LOX IMVI melanoma": {"system": "LOX IMVI melanoma"}, "M14 melanoma": {"system": "M14 melanoma"}, "MALME-3M melanoma": {"system": "MALME-3M melanoma"}, "MCF7 breast": {"system": "MCF7 breast"}, "MDA-MB-231 breast": {"system": "MDA-MB-231 breast"}, "MDA-MB-435": {"system": "MDA-MB-435"}, "MDA-MB-468 breast": {"system": "MDA-MB-468 breast"}, "MOLT-4 leukemia": {"system": "MOLT-4 leukemia"}, "NCI-H226 lung": {"system": "NCI-H226 lung"}}, "note": "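48-hour exposure; five concentrations; linearly interpolated endpoints. GI50: concentration for 50% inhibition of growth. TGI: total growth inhibition.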"}
{"smiles": "COc1ccc(Nc2nc(N)n(Cc3cccc(Br)c3)n2)cc1", "values": [{"measurement": "GI50", "setting": "786-0 renal", "value": 34.3, "unit": "µM"}, {"measurement": "TGI", "setting": "786-0 renal", "value": "> 100", "unit": "µM"}, {"measurement": "GI50", "setting": "A498 renal", "value": 15.9, "unit": "µM"}, {"measurement": "TGI", "setting": "A498 renal", "value": 76.4, "unit": "µM"}, {"measurement": "GI50", "setting": "A549 NSCLC", "value": 36, "unit": "µM"}, {"measurement": "TGI", "setting": "A549 NSCLC", "value": "> 100", "unit": "µM"}, {"measurement": "GI50", "setting": "ACHN renal", "value": 29.7, "unit": "µM"}, {"measurement": "TGI", "setting": "ACHN renal", "value": "> 100", "unit": "µM"}, {"measurement": "GI50", "setting": "BT-549 breast", "value": 14.5, "unit": "µM"}, {"measurement": "TGI", "setting": "BT-549 breast", "value": "> 100", "unit": "µM"}, {"measurement": "GI50", "setting": "CAKI-1 renal", "value": 15, "unit": "µM"}, {"measurement": "TGI", "setting": "CAKI-1 renal", "value": "> 100", "unit": "µM"}, {"measurement": "GI50", "setting": "CCRF-CEM leukemia", "value": 26.3, "unit": "µM"}, {"measurement": "TGI", "setting": "CCRF-CEM leukemia", "value": "> 100", "unit": "µM"}, {"measurement": "GI50", "setting": "COLO 205 colon", "value": 48.4, "unit": "µM"}, {"measurement": "TGI", "setting": "COLO 205 colon", "value": "> 100", "unit": "µM"}, {"measurement": "GI50", "setting": "DU-145 prostate", "value": 65.6, "unit": "µM"}, {"measurement": "TGI", "setting": "DU-145 prostate", "value": "> 100", "unit": "µM"}, {"measurement": "GI50", "setting": "EKVX NSCLC", "value": 18, "unit": "µM"}, {"measurement": "TGI", "setting": "EKVX NSCLC", "value": "> 100", "unit": "µM"}, {"measurement": "GI50", "setting": "HCC-2998 colon", "value": 34.3, "unit": "µM"}, {"measurement": "TGI", "setting": "HCC-2998 colon", "value": "> 100", "unit": "µM"}, {"measurement": "GI50", "setting": "HCT-116 colon", "value": 27.5, "unit": "µM"}, {"measurement": "TGI", "setting": "HCT-116 colon", "value": "> 100", "unit": "µM"}, {"measurement": "GI50", "setting": "HCT-15 colon", "value": 30.8, "unit": "µM"}, {"measurement": "TGI", "setting": "HCT-15 colon", "value": "> 100", "unit": "µM"}, {"measurement": "GI50", "setting": "HL-60(TB) leukemia", "value": 18.4, "unit": "µM"}, {"measurement": "TGI", "setting": "HL-60(TB) leukemia", "value": "> 100", "unit": "µM"}, {"measurement": "GI50", "setting": "HOP-62 NSCLC", "value": "> 100", "unit": "µM"}, {"measurement": "TGI", "setting": "HOP-62 NSCLC", "value": "> 100", "unit": "µM"}, {"measurement": "GI50", "setting": "HOP-92 NSCLC", "value": 11.4, "unit": "µM"}, {"measurement": "TGI", "setting": "HOP-92 NSCLC", "value": 68.4, "unit": "µM"}, {"measurement": "GI50", "setting": "HS 578T breast", "value": 15.4, "unit": "µM"}, {"measurement": "TGI", "setting": "HS 578T breast", "value": "> 100", "unit": "µM"}, {"measurement": "GI50", "setting": "HT29 colon", "value": 64.2, "unit": "µM"}, {"measurement": "TGI", "setting": "HT29 colon", "value": "> 100", "unit": "µM"}, {"measurement": "GI50", "setting": "IGROV1 ovarian", "value": 26.1, "unit": "µM"}, {"measurement": "TGI", "setting": "IGROV1 ovarian", "value": "> 100", "unit": "µM"}, {"measurement": "GI50", "setting": "K-562 leukemia", "value": 28.7, "unit": "µM"}, {"measurement": "TGI", "setting": "K-562 leukemia", "value": "> 100", "unit": "µM"}, {"measurement": "GI50", "setting": "KM12 colon", "value": 26.7, "unit": "µM"}, {"measurement": "TGI", "setting": "KM12 colon", "value": "> 100", "unit": "µM"}, {"measurement": "GI50", "setting": "LOX IMVI melanoma", "value": 31.5, "unit": "µM"}, {"measurement": "TGI", "setting": "LOX IMVI melanoma", "value": "> 100", "unit": "µM"}, {"measurement": "GI50", "setting": "M14 melanoma", "value": 36.8, "unit": "µM"}, {"measurement": "TGI", "setting": "M14 melanoma", "value": "> 100", "unit": "µM"}, {"measurement": "GI50", "setting": "MALME-3M melanoma", "value": 27.2, "unit": "µM"}, {"measurement": "TGI", "setting": "MALME-3M melanoma", "value": "> 100", "unit": "µM"}, {"measurement": "GI50", "setting": "MCF7 breast", "value": 26, "unit": "µM"}, {"measurement": "TGI", "setting": "MCF7 breast", "value": "> 100", "unit": "µM"}, {"measurement": "GI50", "setting": "MDA-MB-231 breast", "value": 37.1, "unit": "µM"}, {"measurement": "TGI", "setting": "MDA-MB-231 breast", "value": "> 100", "unit": "µM"}, {"measurement": "GI50", "setting": "MDA-MB-435", "value": 32.8, "unit": "µM"}, {"measurement": "TGI", "setting": "MDA-MB-435", "value": "> 100", "unit": "µM"}, {"measurement": "GI50", "setting": "MDA-MB-468 breast", "value": 19.3, "unit": "µM"}, {"measurement": "TGI", "setting": "MDA-MB-468 breast", "value": 65.5, "unit": "µM"}, {"measurement": "GI50", "setting": "MOLT-4 leukemia", "value": 26.9, "unit": "µM"}, {"measurement": "TGI", "setting": "MOLT-4 leukemia", "value": "> 100", "unit": "µM"}, {"measurement": "GI50", "setting": "NCI-H226 lung", "value": 27.2, "unit": "µM"}]}
